# Laboratory results taken from patent US20180180595A1, “CELL LINES MUTANT FOR PATCHED 1 AND PATCHED 2 AND METHODS OF USE THEREOF” (The Regents of the University of California, priority 2015, published 2018).
# Tested on: hedgehog response pathway
# Assay: Hh pathway response in neuralized embryoid bodies from Ptch1-/-;Ptch2-/- mESCs
# Type: cell-based, murine
# Details: Ptch1-/-;Ptch2-/- mESCs differentiated into NEBs; agent added exogenously
# Text: In the absence of Ptch1, Ptch2 can mediate some measure of the Shh response. Given the contribution of both Ptch1 and Ptch2 to the interpretation of the Shh signal, it was reasoned that a Ptch1^−/−;Ptch2^−/− genetic background was essential to assess the aggregate contribution of Ptch1/2 to Shh signaling. […] The Ptch1^−/−;Ptch2^−/−;Shh^−/− assessed here have a LacZ under the control of the Ptch1 promoter (Goodrich et al., Science. 1997, 277:1109-1113). Since the upregulation of Ptch1 is a common response to the activation of the Hh response pathway, induction of LacZ in NEBs was assessed. A strong induction of LacZ was observed after three days into the differentiation protocol, consistent with the ventral identity observed using neural markers.
compound,measurement,value
CNC1CCC(N(Cc2cccc(-c3ccncc3)c2)C(=O)c2sc3ccccc3c2Cl)CC1 (stereo not shown) [SAG],induction of the hedgehog response pathway,could not be further induced
